Data on twelve compounds can be found in US9527885B2, “Hepatitis C virus inhibitors” (BRISTOL-MYERS SQUIBB COMPANY, priority 2011, dated 2016).

Where two headings read alike, the source gives them in different places. Bounds are passed on as bounds.

In experiment [1] the test system is HCV genotype 1a (H77 strain) replicon in HUH-7 cells. As to the kind of experiment: HCV replicon luciferase reporter assay, genotype 1a. Format: cell-based. The note with it: HCV genotype 1a replicon luciferase, 3 days incubation. The method, boiled down: (§1)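 Twenty-point, threefold compound titrations (0.5% DMSO) were incubated 3 days at 37 °C with 3.0×10^3 HUH-7 cells/well in 4% FCS. The cells stably carried luciferase replicons: genotype 1b Con1 (S1179I) or 1a H77 (NS3 P1496L, NS5A S2204I). Renilla signal was read after 2 h with 7.5 μM EnduRen, and EC50 was taken from a four-parameter logistic fit. Cytotoxicity (CC50) was measured by Cell Titer-Blue, 8 h.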
(In antiviral work, replicon cells carry a viral genome segment that copies itself.)

Experiment [2] concerns HCV genotype 1b (Con1) replicon in HUH-7 cells. As to the kind of experiment: HCV replicon luciferase reporter assay, genotype 1b. Format: cell-based. Particulars: HCV genotype 1b replicon luciferase, 3 days incubation. An outline of the steps: as §1
[3] abbreviates: Hepatitis C virus, Huh-7, 72 h, range class, read-out: LE_1a (EC50, range).
[4] abbreviates: Hepatitis C virus, 72 h, range class, read-out: LE_1b (EC50, range).
The mark [5] stands for this setting: Hepatitis C virus, Huh-7, 72 h, class symbols, read-out: LE_1a (EC50, range).
[6] abbreviates: Hepatitis C virus, 72 h, class symbols, read-out: LE_1b (EC50, range).

One may read the EC50 as the midpoint of the concentration-response curve. For `COc1ccc2c(O[C@@H]3C[C@H]4C(=O)N[C@]5(C(=O)NS(=O)(=O)C6CC6)C[C@H]5/C=C\CC[C@H](C)C[C@@H](C)[C@H](NC(=O)O[C@@H]5C[C@@H]6C[C@@H]6C5)C(=O)N4C3)nc(-c3ccc(N4CCOCC4)cc3)cc2c1` [Compound 5194, (1R,3r,5S)-bicyclo[3.1.0]hexan-3-yl ((2R,6S,7R,9S,13aS,14aR,16aS,Z)-14a-((cyclopropylsulfonyl)carbamoyl)-2-((6-methoxy-3-(4-morpholinophenyl)isoquinolin-1-yl)oxy)-7,9-dimethyl-5,16-dioxo-1,2,3,5,6,7,8,9,10,11,13a,14,14a,15,16,16a-hexadecahydrocyclopropa[e]pyrrolo[1,2-a][1,4]diazacyclopentadecin-6-yl)carbamate], the concentration giving a half-maximal response (EC50) in experiment [1] (setting [3]) and in experiment [2] (setting [4]) was below 5.46 nM each time.
Consider `CCOc1ccc2c(O[C@@H]3C[C@H]4C(=O)N[C@]5(C(=O)NS(=O)(=O)C6(C)CC6)C[C@H]5/C=C\CC[C@H](C)C[C@@H](C)[C@H](NC(=O)OC(C)(C)C(F)(F)F)C(=O)N4C3)nccc2c1` [Compound 5135, 1,1,1-trifluoro-2-methylpropan-2-yl ((2R,6S,7R,9S,13aS,14aR,16aS,Z)-2-((6-ethoxyisoquinolin-1-yl)oxy)-7,9-dimethyl-14a-(((1-methylcyclopropyl)sulfonyl)carbamoyl)-5,16-dioxo-1,2,3,5,6,7,8,9,10,11,13a,14,14a,15,16,16a-hexadecahydrocyclopropa[e]pyrrolo[1,2-a][1,4]diazacyclopentadecin-6-yl)carbamate], for which the EC50 was 4.82 to 103 nM in experiment [1] (setting [5]) and below 5.46 nM in experiment [2] (setting [6]).
Take `CCOc1ccc2c(O[C@@H]3C[C@H]4C(=O)N[C@]5(C(=O)NS(=O)(=O)C6(C)CC6)C[C@H]5/C=C\CC[C@@H](C)C[C@@H](C)[C@H](NC(=O)OC(C)(C)C(F)(F)F)C(=O)N4C3)nccc2c1` [Compound 5136, 1,1,1-trifluoro-2-methylpropan-2-yl ((2R,6S,7R,9R,13aS,14aR,16aS,Z)-2-((6-ethoxyisoquinolin-1-yl)oxy)-7,9-dimethyl-14a-(((1-methylcyclopropyl)sulfonyl)carbamoyl)-5,16-dioxo-1,2,3,5,6,7,8,9,10,11,13a,14,14a,15,16,16a-hexadecahydrocyclopropa[e]pyrrolo[1,2-a][1,4]diazacyclopentadecin-6-yl)carbamate]: the EC50 in experiment [1] (setting [5]) and in experiment [2] (setting [6]) was below 5.46 nM in each case.
In the case of “1,1,1-trifluoro-2-methylpropan-2-yl ((2R,6S,7R,9S,13aS,14aR,16aS,Z)-7-ethyl-14a-(((1-(fluoromethyl)cyclopropyl)sulfonyl)carbamoyl)-9-methyl-2-((4-methyl-3,4-dihydro-2H-[1,4]oxazino[2,3-f]isoquinolin-7-yl)oxy)-5,16-dioxo-1,2,3,5,6,7,8,9,10,11,13a,14,14a,15,16,16a-hexadecahydrocyclopropa[e]pyrrolo[1,2-a][1,4]diazacyclopentadecin-6-yl)carbamate [Compound 5319]”, the EC50 in experiment [1] (read-out: LE_1a (EC50)) was 33.6 nM; in experiment [2] (read-out: LE_1b (EC50)), 14.2 nM.
On to `COc1ccc2c(O[C@@H]3C[C@H]4C(=O)N[C@]5(C(=O)NS(=O)(=O)C6CC6)C[C@H]5/C=C\CC[C@H](C)C[C@@H](C)[C@H](NC(=O)O[C@@H]5C[C@@H]6C[C@@H]6C5)C(=O)N4C3)nc(-c3ccc(OC(C)C)cn3)cc2c1` [Compound 5208, (1R,3r,5S)-bicyclo[3.1.0]hexan-3-yl ((2R,6S,7R,9S,13aS,14aR,16aS,Z)-14a-((cyclopropylsulfonyl)carbamoyl)-2-((3-(5-isopropoxypyridin-2-yl)-6-methoxyisoquinolin-1-yl)oxy)-7,9-dimethyl-5,16-dioxo-1,2,3,5,6,7,8,9,10,11,13a,14,14a,15,16,16a-hexadecahydrocyclopropa[e]pyrrolo[1,2-a][1,4]diazacyclopentadecin-6-yl)carbamate], for which the concentration giving a half-maximal response (EC50) in experiment [1] (setting [3]) and in experiment [2] (setting [4]) was below 5.46 nM each time.
Take `CCOc1ccc2c(O[C@@H]3C[C@H]4C(=O)N[C@]5(C(=O)NS(=O)(=O)C6CC6)C[C@H]5/C=C\CC[C@H](C)C[C@@H](C)[C@H](NC(=O)OC(C)(C)C(F)(F)F)C(=O)N4C3)nccc2c1` [Compound 5129, 1,1,1-trifluoro-2-methylpropan-2-yl ((2R,6S,7R,9S,13aS,14aR,16aS,Z)-14a-((cyclopropylsulfonyl)carbamoyl)-2-((6-ethoxyisoquinolin-1-yl)oxy)-7,9-dimethyl-5,16-dioxo-1,2,3,5,6,7,8,9,10,11,13a,14,14a,15,16,16a-hexadecahydrocyclopropa[e]pyrrolo[1,2-a][1,4]diazacyclopentadecin-6-yl)carbamate]: the EC50 in experiment [1] (setting [5]) was 4.82 to 103 nM; in experiment [2] (setting [6]) it was below 5.46 nM.
For the compound `CCOc1ccc2c(O[C@@H]3C[C@H]4C(=O)N[C@]5(C(=O)NS(=O)(=O)C6CC6)C[C@H]5/C=C\CC[C@@H](C)C[C@@H](C)[C@H](NC(=O)OC(C)(C)C(F)(F)F)C(=O)N4C3)nccc2c1` [Compound 5130, 1,1,1-trifluoro-2-methylpropan-2-yl ((2R,6S,7R,9R,13aS,14aR,16aS,Z)-14a-((cyclopropylsulfonyl)carbamoyl)-2-((6-ethoxyisoquinolin-1-yl)oxy)-7,9-dimethyl-5,16-dioxo-1,2,3,5,6,7,8,9,10,11,13a,14,14a,15,16,16a-hexadecahydrocyclopropa[e]pyrrolo[1,2-a][1,4]diazacyclopentadecin-6-yl)carbamate], the EC50 in experiment [1] (setting [5]) and in experiment [2] (setting [6]) was below 5.46 nM throughout.
Regarding `CC[C@@H]1C[C@H](C)CC/C=C\[C@@H]2C[C@@]2(C(=O)NS(=O)(=O)C2(C)CC2)NC(=O)[C@@H]2C[C@@H](Oc3nc4c(c5ccccc35)OCCC4)CN2C(=O)[C@H]1NC(=O)OC(C)(C)C(F)(F)F` [Compound 6028, 1,1,1-trifluoro-2-methylpropan-2-yl ((2R,6S,7R,9R,13aS,14aR,16aS,Z)-2-((3,4-dihydro-2H-pyrano[3,2-c]isoquinolin-6-yl)oxy)-7-ethyl-9-methyl-14a-(((1-methylcyclopropyl)sulfonyl)carbamoyl)-5,16-dioxo-1,2,3,5,6,7,8,9,10,11,13a,14,14a,15,16,16a-hexadecahydrocyclopropa[e]pyrrolo[1,2-a][1,4]diazacyclopentadecin-6-yl)carbamate], the EC50 in experiment [1] (setting [3]) and in experiment [2] (setting [4]) was below 5.46 nM throughout.
Regarding `C[C@@H]1CC/C=C\[C@@H]2C[C@@]2(C(=O)NS(=O)(=O)C2CC2)NC(=O)[C@@H]2C[C@@H](Oc3nccc4ccc(F)cc34)CN2C(=O)[C@@H](NC(=O)OC(C)(C)C(F)(F)F)[C@H](C)C1` [Compound 4072, 1,1,1-trifluoro-2-methylpropan-2-yl (2R,6S,7R,9R,13aS,14aR,16aS,Z)-14a-(cyclopropylsulfonylcarbamoyl)-2-(7-fluoroisoquinolin-1-yloxy)-7,9-dimethyl-5,16-dioxo-1,2,3,5,6,7,8,9,10,11,13a,14,14a,15,16,16a-hexadecahydrocyclopropa[e]pyrrolo[1,2-a][1,4]diazacyclopentadecin-6-ylcarbamate], the 50% effective concentration (EC50) in experiment [1] (setting [5]) and in experiment [2] (setting [6]) was below 5.46 nM each time.
Regarding `C[C@@H]1CC/C=C\[C@@H]2C[C@@]2(C(=O)NS(=O)(=O)C2(C)CC2)NC(=O)[C@@H]2C[C@@H](Oc3nccc4c(N5CCOCC5)cccc34)CN2C(=O)[C@@H](NC(=O)OC(C)(C)C(C)(F)F)[C@H](C)C1` [Compound 5126, 3,3-difluoro-2-methylbutan-2-yl ((2R,6S,7R,9R,13aS,14aR,16aS,Z)-7,9-dimethyl-14a-(((1-methylcyclopropyl)sulfonyl)carbamoyl)-2-((5-morpholinoisoquinolin-1-yl)oxy)-5,16-dioxo-1,2,3,5,6,7,8,9,10,11,13a,14,14a,15,16,16a-hexadecahydrocyclopropa[e]pyrrolo[1,2-a][1,4]diazacyclopentadecin-6-yl)carbamate], the concentration for a half-maximal effect (EC50) in experiment [1] (setting [5]) and in experiment [2] (setting [6]) was below 5.46 nM throughout.
On to `C[C@@H]1CC/C=C\[C@@H]2C[C@@]2(C(=O)NS(=O)(=O)C2CC2)NC(=O)[C@@H]2C[C@@H](Oc3ncc(OCC4CC4)c4ccccc34)CN2C(=O)[C@@H](NC(=O)OC(C)(C)C(F)(F)F)[C@H](C)C1` [Compound 4030, 1,1,1-trifluoro-2-methylpropan-2-yl (2R,6S,7R,9R,13aS,14aR,16aS,Z)-2-(4-(cyclopropylmethoxy)isoquinolin-1-yloxy)-14a-(cyclopropylsulfonylcarbamoyl)-7,9-dimethyl-5,16-dioxo-1,2,3,5,6,7,8,9,10,11,13a,14,14a,15,16,16a-hexadecahydrocyclopropa[e]pyrrolo[1,2-a][1,4]diazacyclopentadecin-6-ylcarbamate], for which the half-maximal effective concentration (EC50) in experiment [1] (setting [5]) and in experiment [2] (setting [6]) was below 5.46 nM throughout.
As to `CCOc1cnc(O[C@@H]2C[C@H]3C(=O)N[C@]4(C(=O)NS(=O)(=O)C5(C)CC5)C[C@H]4/C=C\CC[C@H](C)C[C@@H](C)[C@H](NC(=O)OC(C)(C)C(C)(F)F)C(=O)N3C2)c2ccccc12` [Compound 5112, 3,3-difluoro-2-methylbutan-2-yl ((2R,6S,7R,9S,13aS,14aR,16aS,Z)-2-((4-ethoxyisoquinolin-1-yl)oxy)-7,9-dimethyl-14a-(((1-methylcyclopropyl)sulfonyl)carbamoyl)-5,16-dioxo-1,2,3,5,6,7,8,9,10,11,13a,14,14a,15,16,16a-hexadecahydrocyclopropa[e]pyrrolo[1,2-a][1,4]diazacyclopentadecin-6-yl)carbamate], the EC50 in experiment [1] (setting [5]) and in experiment [2] (setting [6]) was 4.82 to 103 nM each time.
